In ChEMBL document CHEMBL5143660, “Investigation on the chemical space of the substituted triazole thio-benzoxazepinone RIPK1 inhibitors” (Eur J Med Chem, 2022):

What was measured:
[1] = Cytotoxicity against human HT-29 cells assessed as reduction in cell viability; format: toxicity, cell-based
HT-29 = assay: Anti-necroptic activity in human HT-29 cells assessed as inhibition of TSZ induced necroptosis measured after 16 to 24 hrs by celltiter-glo luminescent cell viability assay; format: functional, cell-based
[2] = biological target: T1, Receptor-interacting serine/threonine-protein kinase 1 (Homo sapiens, UniProt Q13546); assay: Binding affinity to wild-type human partial length RIPK1 (M1 to K305 residues) expressed in bacterial expression system incubated for 1 hr under shaking condition by Kinomescan method
T1 sequence (Q13546 whole entry): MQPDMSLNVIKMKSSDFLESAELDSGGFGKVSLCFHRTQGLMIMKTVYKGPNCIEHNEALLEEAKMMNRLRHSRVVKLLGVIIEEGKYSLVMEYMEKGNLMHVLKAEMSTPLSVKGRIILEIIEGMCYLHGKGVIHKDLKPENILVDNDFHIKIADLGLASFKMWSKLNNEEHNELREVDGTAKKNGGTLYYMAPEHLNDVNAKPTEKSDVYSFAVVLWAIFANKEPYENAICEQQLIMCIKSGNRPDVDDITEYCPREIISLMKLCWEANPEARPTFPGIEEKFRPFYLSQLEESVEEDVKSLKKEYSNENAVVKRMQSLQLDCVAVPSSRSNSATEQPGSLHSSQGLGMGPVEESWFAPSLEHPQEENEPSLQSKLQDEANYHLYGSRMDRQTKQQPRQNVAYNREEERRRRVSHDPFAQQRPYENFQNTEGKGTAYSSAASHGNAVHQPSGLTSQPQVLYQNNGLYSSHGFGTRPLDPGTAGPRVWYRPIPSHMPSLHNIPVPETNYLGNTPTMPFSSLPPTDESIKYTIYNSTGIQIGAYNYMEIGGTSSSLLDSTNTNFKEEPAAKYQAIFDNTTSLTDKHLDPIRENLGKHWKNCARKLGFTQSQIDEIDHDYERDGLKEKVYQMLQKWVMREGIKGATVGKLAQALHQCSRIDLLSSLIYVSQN

| Kd [2] [µM] | Structure (SMILES) | CC50 [1] [µM] | EC50 (HT-29) [µM] |
| --- | --- | --- | --- |
|  | CN1C(=S)[C@@H](NC(=O)c2nc(Cc3ccccc3)n(CC(F)F)n2)COc2ccccc21 | > 100 | 0.0089 |
| 0.079 | CCn1nc(C(=O)N[C@H]2COc3ccccc3N(C)C2=S)nc1Cc1ccccc1 | > 100 | 0.017 |
|  | CN1C(=S)[C@@H](NC(=O)c2nc(Cc3ccccc3)n(C3CCOCC3)n2)COc2ccccc21 | > 100 | 2.26 |
|  | CN1C(=S)[C@@H](NC(=O)c2nc(Cc3ccccc3)n(CCCC#N)n2)COc2ccccc21 | > 100 | 2.4 |
|  | COCCn1nc(C(=O)N[C@H]2COc3ccccc3N(C)C2=S)nc1Cc1ccccc1 | > 100 | 0.566 |
|  | CC(C)CCn1nc(C(=O)N[C@H]2COc3ccccc3N(C)C2=S)nc1Cc1ccccc1 | > 100 | 3.64 |
|  | CN1C(=S)[C@@H](NC(=O)c2nc(Cc3ccccc3)n(CCCF)n2)COc2ccccc21 | > 100 | 4.76 |
|  | CN1C(=S)[C@@H](NC(=O)c2nc(Cc3ccccc3)n(CCCC(F)(F)F)n2)COc2ccccc21 | > 100 | 2.38 |
|  | CN1C(=O)[C@@H](NC(=O)c2nnc(Cc3ccccc3)[nH]2)COc2ccccc21 [GSK2982772] | > 50 |  |
|  | CN1C(=S)[C@@H](NC(=O)c2nc(Cc3ccccc3)n(CCCO)n2)COc2ccccc21 | > 100 | 0.208 |
|  | CN1C(=S)[C@@H](NC(=O)c2nc(Cc3ccccc3)n(Cc3ccccc3)n2)COc2ccccc21 | > 100 | 0.414 |
|  | CN1C(=S)[C@@H](NC(=O)c2nc(Cc3ccccc3)n(C3CCCCC3)n2)COc2ccccc21 | > 100 | 4 |
|  | CN1C(=S)[C@@H](NC(=O)c2nc(Cc3ccccc3)n(CCCCC#N)n2)COc2ccccc21 | > 100 | 2.68 |
|  | CN1C(=S)[C@@H](NC(=O)c2nc(Cc3ccccc3)n(CC3CCOCC3)n2)COc2ccccc21 | > 100 | 6.31 |
|  | CC(C)n1nc(C(=O)N[C@H]2COc3ccccc3N(C)C2=S)nc1Cc1ccccc1 | > 100 | 0.36 |
|  | CN1C(=S)[C@@H](NC(=O)c2nc(Cc3ccccc3)n(C3CCN(C(=O)OC(C)(C)C)CC3)n2)COc2ccccc21 | > 100 | > 10 |
|  | CCCCCn1nc(C(=O)N[C@H]2COc3ccccc3N(C)C2=S)nc1Cc1ccccc1 | > 100 | 0.805 |
|  | CN1C(=S)[C@@H](NC(=O)c2nc(Cc3ccccc3)n(C3CCNC3)n2)COc2ccccc21 (stereo not given in full) | > 100 | 1.07 |

| Kd [2] [µM] | Structure (SMILES) | CC50 [1] [µM] | EC50 (HT-29) [µM] |
| --- | --- | --- | --- |
| 0.267 | CN1C(=S)[C@@H](NC(=O)c2nc(Cc3ccccc3)n(CC(F)(F)F)n2)COc2ccccc21 | > 100 | 0.036 |
|  | CC(C)Cn1nc(C(=O)N[C@H]2COc3ccccc3N(C)C2=S)nc1Cc1ccccc1 | > 100 | 1.23 |
|  | CN1C(=S)[C@@H](NC(=O)c2nc(Cc3ccccc3)n(-c3ncccn3)n2)COc2ccccc21 | > 100 | 3.97 |
|  | CN1C(=S)[C@@H](NC(=O)c2nc(Cc3ccccc3)n(C3CCCCCC3)n2)COc2ccccc21 | > 100 | 5.53 |
|  | CN1C(=S)[C@@H](NC(=O)c2nc(Cc3ccccc3)n(C3CCN(C(=O)OC(C)(C)C)C3)n2)COc2ccccc21 (stereo not given in full) | > 100 | > 10 |
|  | CN1C(=S)[C@@H](NC(=O)c2nc(Cc3ccccc3)n(CC3CCOC3)n2)COc2ccccc21 (stereo not given in full) | > 100 | 4.42 |
| 0.272 | CN1C(=S)[C@@H](NC(=O)c2nc(Cc3ccccc3)n(C3CCOC3)n2)COc2ccccc21 (stereo not given in full) | > 100 | 1.58 |
|  | CN1C(=S)[C@@H](NC(=O)c2nc(Cc3ccccc3)n(CC3COC3)n2)COc2ccccc21 | > 100 | 2.83 |
| 0.031 | CN1C(=S)[C@@H](NC(=O)c2n[nH]c(Cc3ccccc3)n2)COc2ccccc21 | > 50 |  |
| 0.301 | CN1C(=S)[C@@H](NC(=O)c2nc(Cc3ccccc3)n(C3CCC3)n2)COc2ccccc21 | > 100 | 0.181 |
|  | CN1C(=S)[C@@H](NC(=O)c2nc(Cc3ccccc3)n(C3CCNCC3)n2)COc2ccccc21 | > 100 | 1 |
|  | CN1C(=S)[C@@H](NC(=O)c2nc(Cc3ccccc3)n(C3COC3)n2)COc2ccccc21 | > 100 | 0.916 |
|  | CCCCn1nc(C(=O)N[C@H]2COc3ccccc3N(C)C2=S)nc1Cc1ccccc1 | > 100 | 0.51 |
|  | CCCn1nc(C(=O)N[C@H]2COc3ccccc3N(C)C2=S)nc1Cc1ccccc1 | > 100 | 0.288 |
|  | Cc1cnc(-n2nc(C(=O)N[C@H]3COc4ccccc4N(C)C3=S)nc2Cc2ccccc2)nc1 | > 100 | 1.95 |
|  | CN1C(=S)[C@@H](NC(=O)c2nc(Cc3ccccc3)n(C3CCCC3)n2)COc2ccccc21 | > 100 | 3.53 |
|  | CN1C(=S)[C@@H](NC(=O)c2nc(Cc3ccccc3)n(CCCCCC#N)n2)COc2ccccc21 | > 100 | 3.83 |
|  | CN1C(=S)[C@@H](NC(=O)c2nc(Cc3ccccc3)n(CCC(F)(F)F)n2)COc2ccccc21 | > 100 | 1.55 |
